How the values were obtained:
[1] = Liquid
[2] = excess molar enthalpy (molar enthalpy of mixing); xn = mol fraction of the nth substance listed; settings: 298.15 K, 101.3 kPa, Liquid, Flow calorimetry

CCCCBr [1-bromobutane]
[1]
Settings | vapor or sublimation pressure [kPa]
278.15 K | 1.86
283.15 K | 2.48
288.15 K | 3.265
293.15 K | 4.261
298.15 K | 5.506
303.15 K | 7.039
308.15 K | 8.899
313.15 K | 11.15
318.15 K | 13.87
323.15 K | 17.09

CCCCBr [1-bromobutane] + CCCCCCCCO
[2]
Settings | excess molar enthalpy [kcal/mol]
x2 = 0.025 | 0.087
x2 = 0.0571 | 0.144
x2 = 0.1224 | 0.201
x2 = 0.1949 | 0.233
x2 = 0.2361 | 0.244
x2 = 0.276 | 0.25
x2 = 0.3205 | 0.253
x2 = 0.367 | 0.252
x2 = 0.4661 | 0.24
x2 = 0.5784 | 0.212
x2 = 0.7064 | 0.165
x2 = 0.8484 | 0.0956
x2 = 0.9311 | 0.0488

CCCCCCCCCCO [decan-1-ol]
[1], Closed cell (Static) method
Settings | vapor or sublimation pressure [kPa]
308.15 K | 0.001
313.15 K | 0.004
318.15 K | 0.007
323.15 K | 0.011

CCCCCCCCO [octan-1-ol]
[1]
Settings | vapor or sublimation pressure [kPa]
288.15 K | 0.001
293.15 K | 0.003
298.15 K | 0.007
303.15 K | 0.011
308.15 K | 0.019
313.15 K | 0.031
318.15 K | 0.051
323.15 K | 0.08

Source: the NIST ThermoML archive (doi:10.1021/je030168a)
